Read-outs that look alike come from different tables or passages of the source.
Experiments:
tankyrase-1 [1] = target: T1, tankyrase-1 (Homo sapiens, UniProt O95271); test: Continuous colorimetric PARP kinetic assay with ADP-ribose-pNP, tankyrase-1 active domain; assay type: biochemical
T1 construct: The SAM and PARP domain of tankyrase was subcloned into pGEX-5X-1; made in house; host or cells: E. coli Rosetta
T1 sequence (O95271 1030-1327): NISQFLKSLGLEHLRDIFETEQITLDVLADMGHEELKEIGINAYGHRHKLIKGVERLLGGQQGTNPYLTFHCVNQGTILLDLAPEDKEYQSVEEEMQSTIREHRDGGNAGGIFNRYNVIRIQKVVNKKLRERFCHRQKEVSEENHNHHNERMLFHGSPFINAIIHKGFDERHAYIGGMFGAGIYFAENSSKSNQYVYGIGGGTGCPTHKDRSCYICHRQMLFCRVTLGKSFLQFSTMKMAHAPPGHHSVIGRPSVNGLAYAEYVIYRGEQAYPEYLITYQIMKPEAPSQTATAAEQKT
Protocol: (§1) With the calorimetric substrate ADP-ribose-pNP in hand, a continuous calorimetric assay for PARP activity was developed and the kinetic parameters for three PARP isozymes were determined. In a 96-well plate, a range of concentrations of ADP-ribose-pNP in PARP assay buffer were incubated with either PARP-1 (DNase digested DNA was added to activate PARP-1), tankyrase-1 (refers to “active domain,” see Supporting Information), or VPARP (also refers to the “active domain”), and the optical density at 405 nm was measured every 60 seconds over a 2 hour time period. Change in absorbance was assessed in triplicate, and blanks containing 0 to 700 μM ADP-ribose-pNP in PARP assay buffer were also measured over the same time period. The absorbance of a range of p-nitrophenol concentrations was determined at 405 nm, and the slope of this calibration curve (see Supporting Information) was used to convert the absorbencies to moles of product generated; in this way the kinetic parameters for PARP-1, tankyrase-1, and VPARP were calculated (see Table 1 and FIG. 2).
Kinetics of VPARP and Tankyrase-1. The ADP-ribose-pNP colorimetric substrate was diluted from a 10 mM stock in PARP assay buffer to 1142.9 μM. From this stock, dilutions into PARP assay buffer were made in 15×1.7 mL tubes so that the volume was 490 μL. This was enough to perform the experiment in triplicate, with additional wells (no protein) to serve as blanks for each substrate concentration. The concentration of substrate in each tube was made such that 70 μL from each tube could be added to the wells of a 96 well plate. When each well was brought to the final volume of 100 μL, the desired final concentration was reached. See FIG. 2B and FIG. 5B for tank-ad and VPARP substrate concentrations, respectively. Concentrations ranged from 0 to 700 μM with a finer distribution at lower substrate concentrations.
The plate was divided in half with protein added to half the wells and the other half serving as blanks containing only PARP assay buffer and substrate. After adding 70 μL of substrate from each tube to 3 wells on the protein side or 3 wells of the blank side, 30 μL of PARP assay buffer was added to all the wells of the blank side. Next, 30 μL of the enzyme was added to each of the wells on the protein half of the plate to initiate the reaction, with a final concentration of tankyrase per well of 21.8 μM and the final concentration of VPARP per well of 19.8 μM. The plate was then read on a SpectraMax plus 384 UV/Vis plate reader (Molecular Devices), at 405 nm for 2 hours with observations performed once every minute. Mixing was conducted between observations.
(§2) Data analysis. […] Graphs were analyzed using Table Curve 2D.

bovine serum albumin = bovine serum albumin (Bos taurus, UniProt P02769); test: Control experiment with BSA (non-specific substrate cleavage); assay type: biochemical; details: 20 μM BSA, monitored 2 hours
Sequence of bovine serum albumin (P02769 25-607): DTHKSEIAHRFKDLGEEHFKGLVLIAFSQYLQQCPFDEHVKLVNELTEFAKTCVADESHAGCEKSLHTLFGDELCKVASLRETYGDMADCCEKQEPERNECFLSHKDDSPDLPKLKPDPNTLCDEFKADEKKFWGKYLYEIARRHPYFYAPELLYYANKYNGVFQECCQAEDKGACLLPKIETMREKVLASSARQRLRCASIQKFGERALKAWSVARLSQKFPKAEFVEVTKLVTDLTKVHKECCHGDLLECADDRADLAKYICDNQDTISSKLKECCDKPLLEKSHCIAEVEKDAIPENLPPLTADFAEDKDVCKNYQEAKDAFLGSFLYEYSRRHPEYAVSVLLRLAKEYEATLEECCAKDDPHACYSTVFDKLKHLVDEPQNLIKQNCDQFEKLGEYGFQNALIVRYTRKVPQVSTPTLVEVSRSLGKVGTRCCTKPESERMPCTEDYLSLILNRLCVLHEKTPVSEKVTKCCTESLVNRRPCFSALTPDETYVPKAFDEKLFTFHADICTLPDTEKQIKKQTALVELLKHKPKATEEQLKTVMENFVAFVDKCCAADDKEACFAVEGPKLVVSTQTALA
Protocol: While exact kinetic parameters for PARP-1 can vary with the assay used, for PARP-1 the KM value with ADP-ribose-pNP is consistent with that of the natural β-NAD^+ substrate, while the Vmax is approximately 100 fold lower with the calorimetric substrate (see Table 1). […] To our knowledge, no data is available on the kinetic parameters of VPARP with β-NAD^+.
Control experiment with BSA. To determine that substrate cleavage is specific to the PARP family of enzymes, 16 μL of BSA was added to 81.5 μL of PARP assay buffer in a 96 well plate so that the final concentration was 20 μM in protein. The experiment was performed in triplicate along with controls that contained PARP assay buffer only. To both the wells containing only buffer or buffer and BSA, 2.5 μL of a 10 mM stock of the substrate was added to start the reaction. The plate was monitored at 405 nm for 2 hours.

VPARP = target: T2, VPARP (Homo sapiens, UniProt Q9UKK3); test: Continuous colorimetric PARP kinetic assay with ADP-ribose-pNP, VPARP active domain; assay type: biochemical; details: substrate ADP-ribose-pNP, 405 nm
T2 construct: The plasmid with the catalytic domain of VPARP, pET28b-p193cat; made in house; host or cells: E. coli Rosetta
T2 sequence (Q9UKK3 369-573 limits assumed): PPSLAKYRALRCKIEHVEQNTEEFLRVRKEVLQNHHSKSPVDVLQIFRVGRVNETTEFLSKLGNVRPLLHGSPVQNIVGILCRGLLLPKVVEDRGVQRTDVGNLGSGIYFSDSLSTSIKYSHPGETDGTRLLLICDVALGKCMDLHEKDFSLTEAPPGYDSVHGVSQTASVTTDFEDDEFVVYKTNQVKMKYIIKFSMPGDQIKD
Protocol: (§3) With the calorimetric substrate ADP-ribose-pNP in hand, a continuous calorimetric assay for PARP activity was developed and the kinetic parameters for three PARP isozymes were determined. In a 96-well plate, a range of concentrations of ADP-ribose-pNP in PARP assay buffer were incubated with either PARP-1 (DNase digested DNA was added to activate PARP-1), tankyrase-1 (refers to “active domain,” see Supporting Information), or VPARP (also refers to the “active domain”), and the optical density at 405 nm was measured every 60 seconds over a 2 hour time period. Change in absorbance was assessed in triplicate, and blanks containing 0 to 700 μM ADP-ribose-pNP in PARP assay buffer were also measured over the same time period. The absorbance of a range of p-nitrophenol concentrations was determined at 405 nm, and the slope of this calibration curve (see Supporting Information) was used to convert the absorbencies to moles of product generated; in this way the kinetic parameters for PARP-1, tankyrase-1, and VPARP were calculated (see Table 1 and FIG. 2). […]
(§4) The plate was divided in half with protein added to half the wells and the other half serving as blanks containing only PARP assay buffer and substrate. […] The plate was then read on a SpectraMax plus 384 UV/Vis plate reader (Molecular Devices), at 405 nm for 2 hours with observations performed once every minute. […]

PARP-1 [2] = target: T3, PARP-1 (Homo sapiens, UniProt P09874); test: Continuous colorimetric PARP kinetic assay with ADP-ribose-pNP, PARP-1; assay type: biochemical; parameters: purchased Trevigen
T3 sequence (P09874 whole entry): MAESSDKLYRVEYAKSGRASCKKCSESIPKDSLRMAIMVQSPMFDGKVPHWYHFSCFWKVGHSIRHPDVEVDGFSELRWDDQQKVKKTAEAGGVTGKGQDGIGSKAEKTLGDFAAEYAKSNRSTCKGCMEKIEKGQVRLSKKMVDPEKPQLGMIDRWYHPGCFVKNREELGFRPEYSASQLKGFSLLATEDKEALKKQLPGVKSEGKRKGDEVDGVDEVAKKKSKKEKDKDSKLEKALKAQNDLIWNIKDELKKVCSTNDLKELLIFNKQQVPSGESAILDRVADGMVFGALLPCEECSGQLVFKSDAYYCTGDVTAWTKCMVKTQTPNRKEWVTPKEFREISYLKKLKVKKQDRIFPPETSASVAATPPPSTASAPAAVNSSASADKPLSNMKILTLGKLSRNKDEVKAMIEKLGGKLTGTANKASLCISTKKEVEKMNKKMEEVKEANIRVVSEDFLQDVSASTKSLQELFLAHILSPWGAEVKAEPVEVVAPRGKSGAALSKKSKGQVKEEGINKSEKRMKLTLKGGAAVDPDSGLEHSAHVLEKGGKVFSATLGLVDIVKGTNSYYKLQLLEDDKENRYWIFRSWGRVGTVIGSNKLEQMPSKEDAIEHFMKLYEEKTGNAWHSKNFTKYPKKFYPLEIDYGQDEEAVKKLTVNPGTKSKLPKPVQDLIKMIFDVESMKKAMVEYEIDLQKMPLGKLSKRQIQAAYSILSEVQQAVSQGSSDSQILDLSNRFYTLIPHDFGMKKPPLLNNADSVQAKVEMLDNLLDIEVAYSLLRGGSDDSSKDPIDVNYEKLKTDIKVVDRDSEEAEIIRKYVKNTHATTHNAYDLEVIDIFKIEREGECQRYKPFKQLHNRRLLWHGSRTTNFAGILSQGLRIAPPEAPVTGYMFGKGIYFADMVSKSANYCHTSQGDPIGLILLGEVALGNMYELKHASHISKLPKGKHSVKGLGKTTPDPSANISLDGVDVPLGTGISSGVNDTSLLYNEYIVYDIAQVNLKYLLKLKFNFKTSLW
Protocol: as §1
Preparation of damaged DNA for PARP-1. […]
Kinetics of PARP-1. […] The plate was then read on a SpectraMax plus UV/Vis plate reader (Molecular Devices), at 405 nm for 2 hours, reading once every minute with mixing between reads.
as §2

PARP-1 [3] = target: T3, PARP-1; parameters: purchased Trevigen; details: PARP-1 literature, natural β-NAD+ substrate; cited from earlier work
tankyrase-1 [4] = target: T4, tankyrase-1 (Homo sapiens, UniProt O95271); details: tankyrase-1 literature, β-NAD+ as substrate; cited from earlier work
T4 sequence (O95271 1-1327): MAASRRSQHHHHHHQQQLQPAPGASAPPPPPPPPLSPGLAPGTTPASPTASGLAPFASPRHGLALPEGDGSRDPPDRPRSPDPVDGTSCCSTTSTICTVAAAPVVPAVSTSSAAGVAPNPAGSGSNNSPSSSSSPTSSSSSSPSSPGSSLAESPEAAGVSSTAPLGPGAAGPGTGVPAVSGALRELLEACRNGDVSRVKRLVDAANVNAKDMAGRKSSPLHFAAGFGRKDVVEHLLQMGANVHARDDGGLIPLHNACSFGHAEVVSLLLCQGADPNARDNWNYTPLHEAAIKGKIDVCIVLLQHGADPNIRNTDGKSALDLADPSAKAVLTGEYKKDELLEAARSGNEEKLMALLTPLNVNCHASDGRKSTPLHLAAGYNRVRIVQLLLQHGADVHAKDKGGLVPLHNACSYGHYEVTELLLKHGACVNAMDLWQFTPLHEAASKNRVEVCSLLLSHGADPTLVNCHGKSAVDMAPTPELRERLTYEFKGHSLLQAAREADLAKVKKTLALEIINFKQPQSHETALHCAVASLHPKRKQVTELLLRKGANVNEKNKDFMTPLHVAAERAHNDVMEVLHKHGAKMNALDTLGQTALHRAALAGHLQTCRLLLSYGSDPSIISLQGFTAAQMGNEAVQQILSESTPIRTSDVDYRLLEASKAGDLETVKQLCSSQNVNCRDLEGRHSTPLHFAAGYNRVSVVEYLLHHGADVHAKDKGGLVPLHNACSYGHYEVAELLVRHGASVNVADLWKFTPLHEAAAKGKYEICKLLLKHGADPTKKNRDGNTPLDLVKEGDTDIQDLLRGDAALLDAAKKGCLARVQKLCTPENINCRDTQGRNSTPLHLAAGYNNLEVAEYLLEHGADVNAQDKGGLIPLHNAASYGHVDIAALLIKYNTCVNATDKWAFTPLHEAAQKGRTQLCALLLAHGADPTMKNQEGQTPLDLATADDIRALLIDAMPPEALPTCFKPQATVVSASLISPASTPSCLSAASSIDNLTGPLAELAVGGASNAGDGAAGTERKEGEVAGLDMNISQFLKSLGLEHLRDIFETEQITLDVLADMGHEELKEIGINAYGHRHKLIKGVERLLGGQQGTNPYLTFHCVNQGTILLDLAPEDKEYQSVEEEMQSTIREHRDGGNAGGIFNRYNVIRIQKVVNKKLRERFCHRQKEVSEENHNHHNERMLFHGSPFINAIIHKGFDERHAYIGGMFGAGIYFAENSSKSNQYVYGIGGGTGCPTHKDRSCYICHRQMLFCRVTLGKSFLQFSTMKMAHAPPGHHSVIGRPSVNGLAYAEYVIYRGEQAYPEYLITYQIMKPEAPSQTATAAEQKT

[5] = system: T5, Nc1ncnc2c1ncn2[C@@H]1O[C@H](COP(=O)(O)OP(=O)(O)OC[C@H]2O[C@@H](Oc3ccc([N+](=O)[O-])cc3)C(O)C2O)C(O)C1O; test: Continuous colorimetric PARP kinetic assay with ADP-ribose-pNP, PARP-1; assay type: biochemical; details: other: PARP-1 activated with DNase digested DNA; substrate ADP-ribose-pNP; 405 nm; pH 8.0
T5 construct: purchased Trevigen
Protocol: as §1
Preparation of damaged DNA for PARP-1. 500 μL of Herringsperm DNA (10 mg/ml) was added to 100 mL DNase buffer (400 mM Tris-HCl, 100 mM MgSO4, and 10 mM CaCl2, pH 8.0), along with 50 μL of DNase (1 unit/mL). This solution was first incubated at 37° C. for 1 minute and then heated at 90° C. for 20 minutes to inactivate the DNase. Damaged DNA was used without any further purification.
Kinetics of PARP-1. A 160 μL volume of PARP-1 (0.45 mg/mL) was premixed with 262.4 μL of the damaged herringsperm DNA and 2777.6 μl of PARP assay buffer. This mixture (known as activated PARP in assay buffer) was allowed to equilibrate on ice for 4 hours. The ADP-ribose-pNP colorimetric substrate was diluted from a 5000 μM stock in PARP assay buffer directly into the wells of a 96 well plate. […] The plate was then read on a SpectraMax plus UV/Vis plate reader (Molecular Devices), at 405 nm for 2 hours, reading once every minute with mixing between reads.
as §2

[6] = substrate: Nc1ncnc2c1ncn2[C@@H]1O[C@H](COP(=O)(O)OP(=O)(O)OC[C@H]2O[C@@H](Oc3ccc([N+](=O)[O-])cc3)C(O)C2O)C(O)C1O; test: Continuous colorimetric PARP kinetic assay with ADP-ribose-pNP, VPARP active domain; assay type: biochemical; details: other: VPARP active domain; substrate ADP-ribose-pNP; 405 nm
Protocol: as §3, §4

[7] = tankyrase-1, versus literature values
[8] = tankyrase-1 active domain, substrate ADP-ribose-pNP, 405 nm

Nc1ncnc2c1ncn2[C@@H]1O[C@H](COP(=O)(O)OP(=O)(O)OC[C@H]2O[C@@H](Oc3ccc([N+](=O)[O-])cc3)C(O)C2O)C(O)C1O (stereo partly shown) [ADP-ribose-pNP]
KM fold lower than literature value with β-NAD+ as substrate (tankyrase-1 [1]; [7]): approximately 18 fold
Vmax compared to literature values with β-NAD+ as substrate (tankyrase-1 [1]; [7]): significantly lower
Km (tankyrase-1 [1]; [8]): 82 µM
Vmax (tankyrase-1 [1]; [8]): 1.81e-05 µmol/min/mg
kcat (tankyrase-1 [1]; [8]): 1.88e-05 s⁻¹
signal at 405 nm on incubation with bovine serum albumin (bovine serum albumin): no signal
Vmax (VPARP): 2.03e-06 µmol/min/mg
Vmax fold lower with colorimetric substrate than with natural β-NAD+ substrate (PARP-1 [2]; PARP-1, versus literature values): approximately 100 fold
Vmax (PARP-1 [2]; PARP-1 activated with DNase digested DNA, substrate ADP-ribose-pNP, 405 nm): 0.0013 µmol/min/mg

NC(=O)c1ccc[n+]([C@@H]2O[C@H](COP(=O)([O-])OP(=O)(O)OC[C@H]3O[C@@H](n4cnc5c(N)ncnc54)[C@H](O)[C@@H]3O)[C@@H](O)[C@H]2O)c1 [β-NAD^+, nicotinamide adenine dinucleotide]
Km (PARP-1 [3]): 59 to 278 µM
Vmax (PARP-1 [3]): 0.2 to 2.4 µmol/min/mg
kcat (PARP-1 [3]): 0.41 s⁻¹
Km (tankyrase-1 [4]): 1500 µM
kcat (tankyrase-1 [4]): 0.71 s⁻¹

PARP-1 (Homo sapiens)
Km [5]: 151 µM
Vmax [5]: 0.0013 µmol/min/mg
kcat [5]: 0.025 s⁻¹

B1: VPARP (Homo sapiens) (protein)
chain: PPSLAKYRALRCKIEHVEQNTEEFLRVRKEVLQNHHSKSPVDVLQIFRVGRVNETTEFLSKLGNVRPLLHGSPVQNIVGILCRGLLLPKVVEDRGVQRTDVGNLGSGIYFSDSLSTSIKYSHPGETDGTRLLLICDVALGKCMDLHEKDFSLTEAPPGYDSVHGVSQTASVTTDFEDDEFVVYKTNQVKMKYIIKFSMPGDQIKD
notes: The plasmid with the catalytic domain of VPARP, pET28b-p193cat; made in house; host or cells: E. coli Rosetta
Km [6]: 46 µM
Vmax [6]: 2.03e-06 µmol/min/mg
